“Also recorded” adds a separate entry of the source. Where two headings read alike, the source gives them in different places.
Columns and labels:
[1] = test system: morphine-induced analgesia; assay: In vivo antagonist activity: reversal of morphine-induced analgesia, rat paw withdrawal latency test; conditions: for paw withdrawal latency after i.v. injection / reversal of behavioral arrest and other opioid effects / duration of reversal: 5 mg/kg i.v.; for paw withdrawal latency after i.v. injection: tested within 5-10 min; for paw withdrawal latency after i.v. injection / duration of reversal: morphine-treated rats; for reversal of behavioral arrest and other opioid effects: morphine sulphate 10 mg/kg s.c.; for prodrug behaviour: acetate esters vs 1 and 2; for blood brain barrier penetration: i.v., inferred from reversal of morphine effects in rats; for antagonist potency in vivo (comparison in words): morphine induced paw withdrawal latency; for reversal of the effects of morphine: rat paw withdrawal latency test
Description: Assessment of the ability of compounds 1, 2 and 10, 12 to cross the blood brain barrier was tested in male Sprague-Dawley rats (300 g) acutely treated with morphine. […] A baseline paw withdrawal to a radiant thermal stimulus was obtained in unrestrained animals as described in Iadarola et al., Brain Res. 1988, 455, 205-212 and Hargreaves, Pain 1988, 32, 77-78. The stimulus was set to give a baseline withdrawal latency of approximately 10 sec. and the cutoff was at 18 sec. After baseline testing, morphine sulphate, 10 mg/kg, was injected subcutaneously in a volume of 0.1 ml of saline/100 g of body weight.
Ioxy (1) and epiloxy (2) were evaluated in rat and guinea pig brain membranes for their opiate receptor selectivity and potency. […] This comparison was not made during development of the ^18 F cyclofoxy compounds.

κ1 receptor = biological target: T1, κ1 receptor (Cavia porcellus, UniProt P41144); assay: biochemical; type: binding, guinea pig
T1 construct: from tissue; host or cells: guinea pig brain membranes, pretreated with BIT and FIT
T1 sequence (P41144 whole entry): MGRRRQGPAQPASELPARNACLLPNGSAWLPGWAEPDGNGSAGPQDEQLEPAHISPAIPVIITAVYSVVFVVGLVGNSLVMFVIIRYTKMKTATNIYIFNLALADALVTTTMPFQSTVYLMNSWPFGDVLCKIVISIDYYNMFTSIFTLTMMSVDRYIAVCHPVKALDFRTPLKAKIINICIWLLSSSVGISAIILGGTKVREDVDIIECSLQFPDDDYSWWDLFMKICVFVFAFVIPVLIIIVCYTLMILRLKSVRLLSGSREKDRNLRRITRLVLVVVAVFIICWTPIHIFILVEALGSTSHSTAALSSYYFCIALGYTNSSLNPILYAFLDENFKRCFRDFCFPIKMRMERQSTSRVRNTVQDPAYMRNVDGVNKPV

Low Affinity δ Receptors = assay: Displacement of [^3 H]DADLE, low affinity δ receptors, rat lysed-P2 membranes; type: binding
[2] = biological target: T2, High Affinity δ Receptors (Rattus norvegicus, UniProt P33533); assay: Displacement of [^3 H]DADLE, high affinity δ receptors, rat lysed-P2 membranes; type: binding
T2 construct: and rat lysed-P2 membranes as previously described; from tissue; host or cells: rat lysed-P2 membranes (brain)
T2 sequence (P33533 whole entry): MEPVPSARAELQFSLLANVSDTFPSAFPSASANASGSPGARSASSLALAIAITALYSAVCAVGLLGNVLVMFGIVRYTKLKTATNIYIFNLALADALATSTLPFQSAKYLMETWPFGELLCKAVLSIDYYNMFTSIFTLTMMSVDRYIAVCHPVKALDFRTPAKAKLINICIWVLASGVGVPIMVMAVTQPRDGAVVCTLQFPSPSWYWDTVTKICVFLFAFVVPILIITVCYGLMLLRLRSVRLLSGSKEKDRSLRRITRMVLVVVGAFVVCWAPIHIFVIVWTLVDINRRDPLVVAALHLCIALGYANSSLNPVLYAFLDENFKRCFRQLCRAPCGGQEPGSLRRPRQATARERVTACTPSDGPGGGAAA

κ2 receptor = assay: Displacement of [^3 H]BRM (bremazocine), κ2 receptor binding, guinea pig brain membranes depleted of μ and δ sites; conditions: for less potent (fold) than ioxy: [^3 H]BRM displacement
μ receptor = biological target: T3, μ receptor (Rattus norvegicus, UniProt P33535); assay: Displacement of [^3 H]DAGO, μ receptor binding, rat lysed-P2 membranes
T3 construct: and rat lysed-P2 membranes as previously described; from tissue; host or cells: rat brain, lysed-P2 membranes
T3 sequence (P33535 whole entry): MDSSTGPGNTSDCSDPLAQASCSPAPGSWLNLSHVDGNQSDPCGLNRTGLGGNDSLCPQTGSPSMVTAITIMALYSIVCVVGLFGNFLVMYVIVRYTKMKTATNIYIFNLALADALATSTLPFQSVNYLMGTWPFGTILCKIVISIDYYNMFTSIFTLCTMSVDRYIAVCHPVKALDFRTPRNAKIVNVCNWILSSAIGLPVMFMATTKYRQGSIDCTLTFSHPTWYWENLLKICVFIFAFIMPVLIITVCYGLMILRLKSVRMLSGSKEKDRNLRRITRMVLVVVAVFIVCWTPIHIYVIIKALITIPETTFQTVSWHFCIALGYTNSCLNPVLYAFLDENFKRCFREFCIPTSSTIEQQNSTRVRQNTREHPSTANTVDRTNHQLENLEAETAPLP

μ and κ2 receptor = assay: Displacement of [^3 H]CycloFOXY, μ and κ2 receptor binding, rat brain lysed-P2 membranes
[3] = test system: opiate rich areas of rat brain; assay: In vivo labelling of rat brain determined by autoradiography; conditions: i.v. in rats, preliminary
Description: The radiolabelled products were stored at -20° C. and used within 1 week of purification. The material was dried down under a gentle stream of nitrogen and redissolved in normal saline prior to intravenous (IV) injection into rats (300 g, male Sprague-Dawley) in a volume of 100 μl/100 g body weight.
Cleavage of the 3-O-acetyl group of [^125 I]3-O-Acetylioxy ([^125 I]10) was performed starting with 315 μCi of [^125 I]3-O-Acetylioxydissolved in 50 μl of acetonitrile. To this solution at 25° C. was added 50 μl of concentrated aqueous ammonia solution and the reaction mixture was allowed to stand at 25° C. for 20 min. The reaction solvent was removed by careful evaporation under a stream of nitrogen. The residue was dissolved in 50 μl of 0.1% aqueous TFA/acetonitrile and purified by HPLC as described above for [^125 I]3-O-Acetylioxy to give [^125 I]1 (279 μCi, 88.5% yield). […] The [^125 I]ioxy eluted with the exact elution profile of unlabelled ioxy(1). The product was stored at -20° C. and used within 1 week of purification. The material was dried down under a gentle stream of nitrogen and redissolved in normal saline prior to intravenous (IV) injection into rats (300 g, male Sprague-Dawley) in a volume of 100 μl/100 g body weight.

With CC(=O)Oc1ccc2c3c1O[C@H]1[C@H](I)CC[C@@]4(O)[C@@H](C2)N(CC2CC2)CC[C@]314 [Compound 10, 3-Acetoxy-6β-Iodo-14-Hydroxy-17-Cyclopropylmethyl-4,5α-Epoxymorphinan] the “paw withdrawal latency after i.v. injection” value (“paw withdrawal latency” for short) [1] was “returned to near baseline values”, the “reversal of behavioral arrest and other opioid effects” value [1] was “reversed in a matter of seconds” and the duration of reversal [1] was “at least 40 min”. The prodrug behaviour [1] was “served as prodrug forms of 1 and 2”, the “blood brain barrier penetration” value [1] was “getting into the brain; also recorded: penetrated the blood brain barrier more effectively” and the “antagonist potency in vivo (comparison in words)” value (“antagonist potency in vivo” for short) [1] was “more potent effects on morphine induced paw withdrawal latency than their corresponding phenolic counterparts”. For the same compound, the “reversal of the effects of morphine” value [1] was “complete reversal of the effects of morphine”.
CC(=O)Oc1ccc2c3c1O[C@H]1[C@@H](I)CC[C@@]4(O)[C@@H](C2)N(CC2CC2)CC[C@]314 [Compound 12, 3-Acetoxy-6α-Iodo-14-Hydroxy-17-Cyclopropylmethyl-4,5α-Epoxymorphinan] was tested, and the “paw withdrawal latency” value [1] was “returned to near baseline values”, the “reversal of behavioral arrest and other opioid effects” value [1] was “reversed in a matter of seconds” and the duration of reversal [1] was “at least 40 min”. The prodrug behaviour [1] was “served as prodrug forms of 1 and 2”, the “blood brain barrier penetration” value [1] was “getting into the brain; also recorded: penetrated the blood brain barrier more effectively” and the “antagonist potency in vivo” value [1] was “more potent effects on morphine induced paw withdrawal latency than their corresponding phenolic counterparts”. The “reversal of the effects of morphine” value [1] was “complete reversal of the effects of morphine”.
Oc1ccc2c3c1O[C@H]1[C@H](Br)CC[C@@]4(O)[C@@H](C2)N(CC2CC2)CC[C@]314 [CycloBROXY, reference compound] was tested, and the IC50 (κ1 receptor) was 0.7 ± 0.02 nM, the Ki (κ1 receptor) was 0.32 nM and the “N (slope factor)” value (κ1 receptor; [^3 H]U69,593 displacement) was 1.03 ± .03. For the same compound, the “relative potency in words” value (κ1 receptor; [^3 H]U69,593 displacement) was “most potent displacers”, the IC50 (Low Affinity δ Receptors) was 5.77 ± 0.14 nM and the Ki (Low Affinity δ Receptors) was 4.92 nM. For the same compound, the Ki [2] was 1.96 nM, the “N (slope factor)” value ([2]; [^3 H]DADLE, high affinity δ) was 0.99 ± .09 and the “higher affinity (fold)” value ([2]; [^3 H]DADLE, high affinity δ) was 6 fold. It also gave an IC50 ([2]; read-out: IC50) of 4.3 nM, an IC50 (κ2 receptor) of 20.2 ± 1.2 nM and a Ki (κ2 receptor) of 7.21 nM. For the same compound, the “less potent (fold) than ioxy” value (κ2 receptor) was 3 fold, the IC50 (μ receptor) was 4.21 ± 0.14 nM and the Ki (μ receptor) was 1.23 nM. The “N (slope factor)” value (μ receptor; [^3 H]DAGO displacement) was 1.05 ± .04, the “lower affinity / less potent (fold) than ioxy” value (μ receptor; [^3 H]DAGO displacement) was “about 1.5 fold” and the IC50 (μ and κ2 receptor) was 3.14 ± 0.11 nM. For the same compound, the Ki (μ and κ2 receptor) was 1.19 nM and the “relative affinity / potency in words” value (μ and κ2 receptor; [^3 H]CycloFOXY displacement) was “intermediate receptor affinity”.
In the case of Oc1ccc2c3c1O[C@H]1[C@H](F)CC[C@@]4(O)[C@@H](C2)N(CC2CC2)CC[C@]314 [CycloFOXY, 6β-fluoro-3,14-dihydroxy-17-cyclopropyl methyl-4,5α-epoxymorphinan, reference compound], the “kappa selectivity κ1/μ” value (κ1 receptor; ratio κ1/μ) is reported as 0.89.
In the case of Oc1ccc2c3c1O[C@H]1[C@@H](I)CC[C@@]4(O)[C@@H](C2)N(CC2CC2)CC[C@]314 [EpilOXY, 6α-Iodo-3,14-Dihydroxy-17-Cyclopropylmethyl-4,5α-Epoxymorphinan], the IC50 (κ1 receptor) is reported as 3.17 ± 0.06 nM, the Ki (κ1 receptor) is reported as 1.49 nM and the “N (slope factor)” value (κ1 receptor) is reported as 1.10 ± .02. For the same compound, the “less potent (fold) than ioxy” value (κ1 receptor) was 4 fold, the IC50 (Low Affinity δ Receptors) was 8.06 ± 0.58 nM and the Ki (Low Affinity δ Receptors) was 6.88 nM. For the same compound, the “lower affinity (fold) than ioxy (1)” value (Low Affinity δ Receptors; [^3 H]DADLE, low affinity δ) was 3 fold, the Ki [2] was 46.2 nM and the “N (slope factor)” value ([2]; [^3 H]DADLE, high affinity δ) was 0.99 ± .07. For the same compound, the “lowered affinity / less potent (fold) than ioxy (1)” value ([2]; [^3 H]DADLE, high affinity δ) was 4 fold, the IC50 ([2]; read-out: IC50) was 101 ± 8.4 nM and the IC50 (κ2 receptor) was 23.7 ± 1.1 nM. The Ki (κ2 receptor) was 8.46 nM, the “less potent (fold) than ioxy” value (κ2 receptor) was 3 fold and the IC50 (μ receptor) was 7.16 ± 0.72 nM. The Ki (μ receptor) was 2.09 nM, the “N (slope factor)” value (μ receptor; [^3 H]DAGO displacement) was 0.95 ± .08 and the “lower affinity / less potent (fold) than ioxy” value (μ receptor; [^3 H]DAGO displacement) was 2 fold. The IC50 (μ and κ2 receptor) was 4.34 ± 0.19 nM, the Ki (μ and κ2 receptor) was 1.65 nM and the “reduction in affinity (fold) compared with ioxy (1)” value (μ and κ2 receptor; [^3 H]CycloFOXY displacement) was 6 fold. For the same compound, the “paw withdrawal latency” value [1] was “returned to near baseline values”, the “reversal of behavioral arrest and other opioid effects” value [1] was “reversed in a matter of seconds” and the duration of reversal [1] was “at least 40 min”. The “blood brain barrier penetration” value [1] was “getting into the brain” and the “reversal of the effects of morphine” value [1] was “complete reversal of the effects of morphine”.
Oc1ccc2c3c1O[C@H]1[C@H](I)CC[C@@]4(O)[C@@H](C2)N(CC2CC2)CC[C@]314 [IOXY, 6β-Iodo-3,14-Dihydroxy-17-Cyclopropylmethyl-4,5α-Epoxymorphinan] was tested, and the IC50 (κ1 receptor) was 0.89 ± 0.01 nM, the Ki (κ1 receptor) was 0.42 nM and the “N (slope factor)” value (κ1 receptor) was 1.04 ± .02. The “kappa selectivity κ1/μ” value (κ1 receptor) was 1.9, the “relative potency in words” value (κ1 receptor) was “most potent displacers” and the Ki (Low Affinity δ Receptors) was 2.25 nM. The “relative affinity in words” value (Low Affinity δ Receptors; [^3 H]DADLE, low affinity δ) was “highest affinity of all the compounds tested”, the IC50 (Low Affinity δ Receptors; […], ligand concentration = 2.1 nM) was 2.64 ± 0.21 nM and the IC50 [2] was 5.6 ± 3.1 nM. The Ki [2] was 11.7 nM, the “N (slope factor)” value ([2]; [^3 H]DADLE, high affinity δ) was 0.77 ± .07 and the IC50 (κ2 receptor) was 7.65 ± 0.23 nM. The Ki (κ2 receptor) was 2.73 nM, the “kappa selectivity κ2/μ” value (κ2 receptor; ratio κ2/μ) was 0.3 and the IC50 (μ receptor) was 2.74 ± 0.21 nM. For the same compound, the Ki (μ receptor) was 0.8 nM, the “N (slope factor)” value (μ receptor; [^3 H]DAGO displacement) was 1.05 ± .07 and the “relative potency in words” value (μ receptor; [^3 H]DAGO displacement) was “most potent”. For the same compound, the IC50 (μ and κ2 receptor) was 0.77 ± 0.05 nM, the Ki (μ and κ2 receptor) was 0.29 nM and the “relative affinity / potency in words” value (μ and κ2 receptor; [^3 H]CycloFOXY displacement) was “more potent than the opiate antagonist, naltrexone”. The “paw withdrawal latency” value [1] was “returned to near baseline values”, the “reversal of behavioral arrest and other opioid effects” value [1] was “reversed in a matter of seconds” and the duration of reversal [1] was “at least 40 min”. The “blood brain barrier penetration” value [1] was “readily passed the blood brain barrier”, the “blood brain barrier penetration” value ([1]; listed as 1) was “getting into the brain” and the “antagonist potency in vivo” value ([1]; listed as Ioxy) was “more potent in vivo than compound 2 and cyclofoxy”. For the same compound, the “antagonist potency in vivo” value ([1]; listed as ioxy) was “potent opioid receptor antagonist in the rat; also recorded: more effective than epiioxy” and the “reversal of the effects of morphine” value [1] was “complete reversal of the effects of morphine”.
O=C1CC[C@@]2(O)[C@H]3Cc4ccc(O)c5c4[C@@]2(CCN3CC2CC2)[C@H]1O5 [Naltrexone, reference compound] was tested, and the “paw withdrawal latency” value [1] was “returned to near baseline values”, the “reversal of behavioral arrest and other opioid effects” value [1] was “reversed in a matter of seconds” and the “reversal of the effects of morphine” value [1] was “complete reversal of the effects of morphine”.
In the case of Oc1ccc2c3c1O[C@H]1[C@H](F)CC[C@@]4(O)[C@@H](C2)N(CC2CC2)CC[C@]314 [[^3 H]CycloFOXY, reference compound], the Kd (μ and κ2 receptor; [^3 H]CycloFOXY, read-out: Kd of radioligand) is reported as 0.8 nM.
For Oc1ccc2c3c1O[C@H]1[C@H]([125I])CC[C@@]4(O)[C@@H](C2)N(CC2CC2)CC[C@]314 [[^125 I]1], the “in vivo labelling of rat brain” value [3] was “could label opiate rich areas of rat brain”.
In the case of CC(=O)Oc1ccc2c3c1O[C@H]1[C@H]([125I])CC[C@@]4(O)[C@@H](C2)N(CC2CC2)CC[C@]314 [[^125 I]10, [^125 I]3-Acetoxy-6β-Iodo-14-Hydroxy-17-Cyclopropylmethyl-4,5α-Epoxymorphinan], the “in vivo labelling of rat brain” value [3] is reported as “could label opiate rich areas of rat brain”.
“[D-ala^2, D-leu^5 ]enkephalin [[^3 H] DADLE, reference compound]” gave a Kd (Low Affinity δ Receptors; [^3 H]DADLE, low affinity δ, δcx site, read-out: Kd of radioligand) of 12.2 nM.

From patent publication US5336483A (priority 1993, dated 1994)
